“Also recorded” adds a separate entry of the source.
Legend:
[1] = tested on: intestinal inflammation (rectal prolapse); assay: Intestinal inflammation in SCID mice induced by CD45RBHI T cell transfer; type: in vivo
Method: The therapeutic benefits of baicalein on subsiding intestinal inflammation, which was induced in SCID mice by i.v. injection of CD4+ CD45RB HI T cells, was examined. For these experiments, spleens were collected from 6-12 week old donor mice (BALB/c) and splenocytes were isolated by mechanical homogenization of whole spleens. The CD4+ T cells were selected by positive selection. In brief, a cell suspension of pooled splenocytes from 4-5 donor mice was incubated with anti-CD4 (L3T4) antibody coated magnetic beads (DYNABEADS: Catalog # 114.05, Dynal, Lake Success, N.Y.) for 20-30 minutes at 4° C. and separated by magnetic cell sorting with a Dynal Magnetic Particle Concentrator (MPC). Cells were removed from the cell-bead complex with Dynal DETACHaBEAD, and isolated from beads using a Dynal MPC. The resulting CD4+ enriched population was >90% pure. The cell suspension was then incubated with Fc block (anti-CD32, PharMingen, 01241A) and labeled with anti-CD4-FITC (PharMingen, 9004D) and anti-CD45RB-PE (PharMingen, 01145A), for 30 minutes at 4° C. washed, and sorted using a FACSTAR (Becton Dickinson, San Jose, Calif.) cell sorter. Double positive cells (CD4+/CD45Rb+) were collected, selecting the cells that expressed high levels of CD45Rb (brightest 45%). The collected cell population was >90% pure and viable. Cells were then washed in cold […] buffered saline (PBS Sigma D8662) and resuspended in PBS. Balb/c SCID mice, aged 6-12 weeks, were injected intravenously with CD45RBHI Tcells in the tail vein.
Ten weeks post CD45RBHI T cell transfer, roughly 30% of SCID mice developed intestinal inflammation, characterized by mucin depletion, goblet cell loss, epithelial hyperplasia and finally rectal prolapse (FIG. 8). These mice were divided equally among treatment groups The first treatment group received buffer control alone (sterile Hanks Balanced Salts Solution (“HBSS”)) and the second and the third treatment groups received low (2 μM) and high (200 μM) doses of baicalein i.v., respectively, every other day along with a vehicle control. […]

MRP-2 = MRP-2 expression in large bowel of CD45Rbhi T cell transferred mice; type: in vivo; conditions: sick mice after treatment, FIG. 11C
Method: The upper third of the large bowel from these mice were excised, and fixed in OCT. Slides from these tissues were prepared and fluorescently probed for MRP-2 expression. […] Thus, in the efflux pathway for hepoxilin A3, MRP-2 is in fact activated during the disease phase and suppressed upon baicalein treatment

IL-8 secretion = IL-8 secretion by S. typhimurium infected T84 cell monolayers; type: cell-based, human; conditions: S. typhimurium infected T84, baicalein 1 μM
IL-8 production = assay: IL-8 produced in S. typhimurium-infected intestinal xenografts; type: in vivo, human; conditions: S. typhimurium-infected xenografts in the presence of baicalein
Method: (§1) Further, the effect of baicalein on S. typhimurium pathology in human intestinal xenografts was determined (Savidge et al., 1995) (FIG. 7). The human fetal intestinal xenograft model used in the present study has been previously described in detail (Savidge et al., 1995). Briefly, human fetal small intestine (n=3, gestational age 10-14weeks) was transplanted subcutaneously into C.B-17 severe-combined immunodeficient (SCID) mice. Xenografts were allowed to develop for a period between 10-20 weeks before use at which time the epithelium and underlying mucosa is fully differentiated (Savidge et al., 1995). Xenografts were infected with approximately 5×10^7 wild type S. typhimurium SL1344 in sterile HBSS(+) buffer in a 100 μl volume injected intralumenally by subcutaneous injection. […]
(§2) It was further confirmed that treatment of the intestinal xenografts with baicalein inhibited the 12-LO pathway by measuring the amount of 12-S-HETE, a major 12-LO metabolite, released into the lumenal fluid. […] Finally, it was determined that there was no statistical difference in the amount IL-8 produced in the S. typhimurium-infected intestinal xenografts in the absence compared to the presence of baicalein treatment (200±53 pg/mg compared to 225±30 pg/mg, respectively, verses 52±11 pg/mg for uninfected control). […]

12-LO pathway = assay: 12-S-HETE ELISA of lumenal fluid of S. typhimurium-infected xenografts; type: in vivo, human; conditions: S. typhimurium-infected xenografts with baicalein; average of two lumens
Method: as §1, §2

[2] = tested on: S. typhimurium-induced PMN transepithelial migration, T84 cells; assay: Inhibition of S. typhimurium-induced PMN transepithelial migration across T84 monolayers; type: cell-based, human; conditions: T84 pre-treated: baicalein 48 hours, caffeic acid 24 hours
From the text: It was further examined if hepoxilin A3 acts in a gradient fashion to drive PMN migration from the basolateral to the apical epithelial surface. For these experiments, the physiologically directed (basolateral-to-apical) PMN transepithelial migration assay using cell culture inserts of inverted T84 monolayers has been used (McCormick et al., 1993; Parkos et al., 1992). Human PMN were isolated from normal volunteers, as described elsewhere (Parkos et al., 1992; Henson and Oades, 1975). […] PMN which completely traversed the monolayer were represented as the number of PMN (CE/ml in a total volume of 1 ml). Values were expressed as the mean and SD of an individual experiment done in triplicate repeated at least 3 times.
Hepoxilin A3 is formed via the 12-lipoxygenase (LO) metabolism pathway of arachidonic acid. Therefore, the involvement of the 12-LO pathway in the ability of the enteric pathogen, S. typhimurium, to induce PMN transepithelial migration and elicit PEEC secretion was tested. […] For 12-LO inhibition, HBSS(+)-washed T84 cell monolayers were incubated in the presence baicalein [stock concentration at 1 mM in DMSO] for 48 hours at 37° C. Subsequently, S. typhimurium SL1344 was added to the apical surface of the T84 monolayers and after an incubation of 1 hour at 37° C., the cells were washed free of non-adherent bacteria and then processed for the PMN transmigration assay. […] For 5-LO inhibition, the T84 cells were washed with HBSS(+) and then were incubated for 24 hours in the presence of caffeic acid (stock concentration at 22 mM in DMSO). Both inhibitors were purchased form Biomol, Plymouth Meeting, Pa.
In each instance, the T84 cell monolayers were incubated for […] in the presence of the inhibitor prior to the addition of S. typhimurium.

Compound: O=c1cc(-c2ccccc2)oc2cc(O)c(O)c(O)c12 [baicalein]
- rectal prolapse ([1]; high dose 200 μM i.v. every other day, 2.5 weeks): complete recovery of rectal prolapse
- health status and rectal prolapse ([1]; low dose 2 μM i.v. every other day, 2.5 weeks): no improvement of their health status and rectal prolapse
- illness (rectal prolapse, diarrhea, weight loss) ([1]; therapeutic regimen, after 2 weeks): resolved the illness
- MRP-2 expression at apical surface of intestinal epithelium (MRP-2): completely suppressed
- IL-8 secretion (IL-8 secretion): 577 ± 35 pg/mL
- IL-8 produced (IL-8 production): 225 ± 30 pg/mg
- 12-S-HETE in lumenal fluid (12-LO pathway): 21.5 ng/mL
- S. typhimurium-induced PMN transepithelial migration with lipoxygenase inhibitor [2]: attenuated S. typhimurium-induced PMN transepithelial migration in a concentration-dependent fashion; also recorded: dose dependent decrease

— patent US20040265323A1, “Compositions comprising pathogen elicited epithelial chemoattractant (eicosanoid hepoxilin A3), inhibitors thereof and methods of use thereof” (priority 2003, published 2004)
